Measurements reported in patent US20090004497A1, “Wood Preservative Formulations Comprising Rh-287” (priority 2006, published 2009).
Several values for one entry are separate records, joined by “and”; a condition that tells them apart may be missing. Equal values may be shown once.

Test system: decay organisms
Experiment: soil contact veneer exposure test (Scots pine sapwood veneers part buried in damp compost, pulled by hand until failure)
Conditions: for Half lives for chemicals tested as solutions in acetone, With RH-287 added / Half lives for chemicals tested as solutions in acetone, No addition (average time for failure to occur) / Half lives, With RH-287 added, expected value in parentheses / positive synergy: actual average time to failure compared with the estimated one: Example 1; for Half lives for chemicals tested as solutions in acetone, With RH-287 added: 1.00% fungicide plus 1.00% RH-287 in acetone; for Half lives for chemicals tested as solutions in acetone, No addition (average time for failure to occur): 2.00% fungicide alone in acetone, dip treated veneers, 6 replicates, compost about 30° C.; for Half lives, With RH-287 added, expected value in parentheses: expected additive value for 1.00% fungicide plus 1.00% RH-287, midway between the two 2.00% values; for positive synergy: actual average time to failure compared with the estimated one: combination of RH-287 with co-biocide, 1.00% each in acetone
Text: It is preferable that the thickness of the veneers be greater than 0.1 mm, as veneers of lesser thickness can often be pulled apart by hand without undergoing exposure to decay organisms. Veneers which are thicker than 0.4 may take an excessive amount of time to fail the exposure test. In one embodiment, the thickness of the veneers is about 0.2 mm and the wood is the sapwood of the Scots pine (Pinus sylvestris). Other woods and thicknesses can be used. […] For example, 0.2 mm thick Scots pine sapwood veneers which are exposed as outlined below generally fail in 5 weeks or less. An example of convenient width and length dimensions are 15×50 mm. However, width and length are not critical, although very large or small length or width dimensions may be difficult to handle.
Accordingly, the test of the present invention comprises testing the integrity of a veneer after exposure to a decay-inducing environment. In one embodiment, this environment is damp compost in which decay organisms are present and water is present at just above the water holding capacity of the compost. If desired, other media can be used, and the test can be conducted at water contents which are below, at, or above the water-holding capacity of the media.
In general, the integrity of the veneer is inversely related to the length of exposure to the decay promoting environment. The integrity of the veneer can be tested by applying a force to the veneer and noting whether or not the veneer breaks. Thus, if wood preservative agents are applied to the veneers, these veneers would be expected to withstand longer exposure to the environment without breaking compared to control veneers without breaking.
The force applied to the veneers is preferably a force which pulls the two ends in opposite directions. The force can be applied by the use of an instrument or manually. If there is significant decay the veneer will break, generally near the junction between the portion submerged in the decay accelerating medium and the portion exposed to air. If the force is applied manually, it is preferable that the same individual conduct the test at the various exposure time points.
Veneers of Scots pine Pinus sylvestris (0.2 mm thick, 50×15 mm) sapwood are cut from test blocks as described in EN 113, a known standard test method in the European timber industry. The veneers were cut such that both late wood and early wood were present in each veneer. RH-287 was tested in combination with the following biocides: chlorothalonil, fenpropimorph, propiconazole, copper ( as copper naphthenate ), tridemorph, fenarimol, cyproconazole, Imazalil and dichlorophen.
Test solutions were prepared and sets of veneers were dip treated such that there were 6 replicate veneers for each treatment under investigation. Additionally six veneers were dip treated in deionised water to act as water controls. Being thin, the timber veneers dried quickly. Plastic containers (approximately 350×220 mm by at least 60 mm high) were part filled with John Innes Number 2 potting compost at a little above its water holding capacity. The veneers for a particular test were placed in six rows within a container such that approximately half the veneer was below the compost and half above. The veneers were placed in the compost such than those given a particular treatment were distributed throughout the container and were not grouped together. The containers, compost and veneers were weighed then incubated at about 30° C. and near 100% relative humidity in an incubator. Each week during the test the assembly was reweighed and deionised water added to bring it back to its original mass. After 3 weeks each veneer was examined in turn. It was held between the fingers at each end and pulled to see if it could be broken. If it could be pulled apart a failure was recorded. If the veneer was sound, this was recorded and the veneer was returned to its original position. […]

[1] = Example 3, solutions in acetone
[2] = Example 4, solutions in acetone

| Compound | Half lives for chemicals tested as solutions in acetone, With RH-287 added [weeks] | Half lives for chemicals tested as solutions in acetone, No addition (average time for failure to occur) | Half lives, With RH-287 added, expected value in parentheses | other results |
| --- | --- | --- | --- | --- |
| OC(c1ccc(Cl)cc1)(c1cncnc1)c1ccccc1Cl (racemic) [Fenarimol, (±)-2,4′-dichloro-α-(pyrimidin-5-yl) benzhydryl alcohol] | 17.17 | 5.50 weeks | (15.34 weeks) | – |
| CC(Cc1ccc(C(C)(C)C)cc1)CN1C[C@@H](C)O[C@@H](C)C1 (mixture of isomers) [Fenpropimorph, (±)-cis-4-[3-(4-tert-butylphenyl)-2-nethylpropyl]-2,6-dimethyl=morpholine] | 21.17 | 4.50 weeks | (14.84 weeks) | positive synergy: actual average time to failure compared with the estimated one: most marked |
| CCCC1COC(Cn2cncn2)(c2ccc(Cl)cc2Cl)O1 (racemic) [Propiconazole, (±)-1-[2-(2,4-dichlorophenyl)-4-propyl-1,3-dioxolan-2-ylmethyl-=1H-1,2,4-triazol] | 20.50 | 4.50 weeks | (14.84 weeks) | – |
| N#Cc1c(Cl)c(Cl)c(Cl)c(C#N)c1Cl [Chlorothalonil, tetrachloroisophthalonitrile] | 22.50 | 12.5 weeks and 12.50 weeks | – | Half lives for chemicals tested as solutions in acetone, No addition (average time for failure to occur) (listed as chlorothalonil): 12.5 weeks; Half lives, With RH-287 added, expected value in parentheses (listed as chlorothalonil): about 18.84 weeks |
| CC(C1CC1)C(O)(Cn1cncn1)c1ccc(Cl)cc1 (stereo not drawn) [Cyproconazole, (2RS,3RS;2RS,3SR)-2-(4-chlorophenyl)-3-cyclopropyl-1-=(1H-1,2,4-trazol-1-yl)butan-2-ol] | 22.00 | 5.17 weeks | (15.17 weeks) | positive synergy: actual average time to failure compared with the estimated one: most marked |
| Oc1ccc(Cl)cc1Cc1cc(Cl)ccc1O [Dichlorophen, 4.4′-dichloro-2,2′-methylenediphenol] | 24.17 | 16.00 weeks | (20.59 weeks) | Half life for 0.8% fungicide plus 0.8% RH-287, expected value in parentheses (Example 3, expected additive value): {13.83 weeks}; Half life for 0.8% fungicide plus 0.8% RH-287 [1]: 15.33 weeks; Half life for fungicide at 0.8% active ingredient [1]: 8.67 weeks; Half life for fungicide at 1.60% active ingredient (ai) [1]: 10.83 weeks |
| CCCCCCCCn1sc(Cl)c(Cl)c1=O [RH-287, 4,5 dichloro-2-n-octyl-4-isothiazolin-3-one] | – | 25.17 weeks | – | Half life for fungicide at 2.00% active ingredient (ai) (Example 2, solutions in acetone): 22.50 weeks; Half life for fungicide at 0.8% active ingredient [1]: 10.00 weeks; Half life for fungicide at 1.60% active ingredient (ai) [1]: 16.83 weeks; Half life for fungicide at 0.8% active ingredient [2]: 12.17 weeks; Half life for fungicide at 1.60% active ingredient (ai) [2]: 16.67 weeks; relationship between concentration of RH-287 and veneer half life (Example 5, up to about 2% RH-287 in acetone (FIG. 1)): corresponding increase in the half life |
| CCCCCCCCCCCCCN1CC(C)OC(C)C1 (stereo not shown) [Tridemorph, 4-alkyl-2,6-dimethylmorpholine] | 17.50 | 4.33 weeks | (14.75 weeks) | – |
| Copper naphthenate [Copper (as Copper Naphthenate)] | 21.50 | 16.67 weeks | – | – |
